Key:
human orexin-1 receptor = target: T1, human orexin-1 receptor (Homo sapiens, UniProt O43613); test: Intracellular calcium measurements (FLIPR), orexin receptor antagonistic activity, OX1; assay type: cell-based; conditions: CHO cells expressing the human orexin-1 receptor; 10 nM orexin-A as agonist; fluo-3 calcium signal
T1 construct: expressed in transfected cells; host or cells: CHO cells (G418 selection)
T1 sequence (O43613 1-425): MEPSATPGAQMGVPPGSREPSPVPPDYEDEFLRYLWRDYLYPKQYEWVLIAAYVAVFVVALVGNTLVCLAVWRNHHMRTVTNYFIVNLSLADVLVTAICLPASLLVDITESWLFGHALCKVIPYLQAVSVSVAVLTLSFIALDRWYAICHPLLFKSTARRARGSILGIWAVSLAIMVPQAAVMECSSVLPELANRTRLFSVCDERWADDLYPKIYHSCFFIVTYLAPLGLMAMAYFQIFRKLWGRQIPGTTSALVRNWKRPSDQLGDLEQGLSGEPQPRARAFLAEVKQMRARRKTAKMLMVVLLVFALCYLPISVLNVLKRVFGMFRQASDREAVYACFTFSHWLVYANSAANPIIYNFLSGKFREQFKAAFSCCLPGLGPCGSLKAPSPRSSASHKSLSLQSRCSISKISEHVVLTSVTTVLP
Protocol: (§1) The orexin receptor antagonistic activity of the compounds of formula (I) is determined in accordance with the following experimental method.
(§2) Chinese hamster ovary (CHO) cells expressing the human orexin-1 receptor and the human orexin-2 receptor, respectively, are grown in culture medium (Ham F-12 with L-Glutamine) containing 300 μg/ml G418, 100 U/ml penicillin, 100 μg/ml streptomycin and 10% inactivated fetal calf serum (FCS). The cells are seeded at 80′000 cells/well into 96-well black clear bottom sterile plates (Costar) which have been precoated with 1% gelatine in Hanks' Balanced Salt Solution (HBSS). All reagents are from Gibco BRL. The seeded plates are incubated overnight at 37° C. in 5% CO2.
(§3) Human orexin-A as an agonist is prepared as 1 mM stock solution in methanol:water (1:1), diluted in HBSS containing 0.1% bovine serum albumin (BSA) and 2 mM HEPES for use in the assay at a final concentration of 10 nM.
(§4) Antagonists are prepared as 10 mM stock solution in DMSO, then diluted in 96-well plates, first in DMSO, then in HBSS containing 0.1% bovine serum albumin (BSA) and 2 mM HEPES.
(§5) On the day of the assay, 100 μl of loading medium (HBSS containing 1% FCS, 2 mM HEPES, 5 mM probenecid (Sigma) and 3 μM of the fluorescent calcium indicator fluo-3 AM (1 mM stock solution in DMSO with 10% pluronic acid) (Molecular Probes) is added to each well.
(§6) The 96-well plates are incubated for 60 min at 37° C. in 5% CO2. The loading solution is then aspirated and cells are washed 3 times with 200 μl HBSS containing 2.5 mM probenecid, 0.1% BSA, 2 mM HEPES. 100 μl of that same buffer is left in each well.
(§7) Within the Fluorescent Imaging Plate Reader (FLIPR, Molecular Devices), antagonists are added to the plate in a volume of 50 μl, incubated for 20 min and finally 100 μl of agonist is added. Fluorescence is measured for each well at 1 second intervals, and the height of each fluorescence peak is compared to the height of the fluorescence peak induced by 10 nM orexin-A with buffer in place of antagonist. For each antagonist, IC50 value (the concentration of compound needed to inhibit 50% of the agonistic response) is determined.

human orexin-2 receptor = target: T2, human orexin-2 receptor (Homo sapiens, UniProt O43614); test: Intracellular calcium measurements (FLIPR), orexin receptor antagonistic activity, OX2; assay type: cell-based; conditions: CHO cells expressing the human orexin-2 receptor; 10 nM orexin-A as agonist; fluo-3 calcium signal
T2 construct: expressed in transfected cells; host or cells: CHO cells (G418 selection)
T2 sequence (O43614 1-444): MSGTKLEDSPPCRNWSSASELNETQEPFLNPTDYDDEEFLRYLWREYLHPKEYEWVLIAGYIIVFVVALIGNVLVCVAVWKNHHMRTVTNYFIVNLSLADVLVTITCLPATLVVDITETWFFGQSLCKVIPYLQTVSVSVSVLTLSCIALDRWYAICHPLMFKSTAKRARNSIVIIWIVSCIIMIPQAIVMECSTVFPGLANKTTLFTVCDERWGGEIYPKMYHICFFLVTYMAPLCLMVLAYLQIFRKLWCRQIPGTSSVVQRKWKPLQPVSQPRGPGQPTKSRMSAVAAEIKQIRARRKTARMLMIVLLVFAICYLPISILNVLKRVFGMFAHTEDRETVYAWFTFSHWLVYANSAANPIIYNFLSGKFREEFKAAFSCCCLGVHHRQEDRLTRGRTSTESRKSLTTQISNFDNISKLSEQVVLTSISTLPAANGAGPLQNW
Protocol: as §1, §2, §3, §4, §5, §6, §7

Row | SMILES | IC50 (human orexin-1 receptor) | IC50 (human orexin-2 receptor)
1 | O=C(c1ccccc1-c1ccccc1F)N1CCC[C@@H](Nc2ncc(Br)cn2)C1 [Example 3, (R)-[3-(5-Bromo-pyrimidin-2-ylamino)-piperidin-1-yl]-(2′-fluoro-biphenyl-2-yl)-methanone] | 0.081 µM | 0.171 µM
2 | Cc1cccc(-c2sc(C)nc2C(=O)N2CCC[C@@H](NC(=O)c3c(C)nc4sccn34)C2)c1 [Example 7, (R)-6-Methyl-imidazo[2,1-b]thiazole-5-carboxylic acid[1-(2-methyl-5-m-tolyl-thiazole-4-carbonyl)-piperidin-3-yl]-amide] | 0.027 µM | 0.05 µM
3 | O=C(c1ccccc1-c1ccccc1)N1CCC[C@@H](Nc2ncc(Br)cn2)C1 [Example 1, (R)-Biphenyl-2-yl-[3-(5-bromo-pyrimidin-2-ylamino)-piperidin-1-yl]-methanone] | 0.294 µM | 0.392 µM

Now from value to compound:

Row | IC50 (human orexin-1 receptor) | IC50 (human orexin-2 receptor) | SMILES
4 | 0.101 µM | 0.165 µM | Cc1ccc(-c2sc(C)nc2C(=O)N2CCC[C@@H](NC(=O)c3c(C)nc4sccn34)C2)cc1 [Example 9, (R)-6-Methyl-imidazo[2,1-b]thiazole-5-carboxylic acid[1-(2-methyl-5-p-tolyl-thiazole-4-carbonyl)-piperidin-3-yl]-amide]
5 | 0.065 µM | 0.097 µM | Cc1nc(C(=O)N2CCC[C@@H](NC(=O)c3c(C)nc4sccn34)C2)c(-c2ccccc2F)s1 [Example 15, (R)-6-Methyl-imidazo[2,1-b]thiazole-5-carboxylic acid{1-[5-(2-fluoro-phenyl)-2-methyl-thiazole-4-carbonyl]-piperidin-3-yl}-amide]
